Source: patent publication US8158621B2, “Methods of treating or preventing autoimmune diseases with 2,4-pyrimidinediamine compounds” (Rigel Pharmaceuticals, Inc., priority 2002, dated 2012)
pIC50: −log10 of the molar value.

test system: bone marrow derived mast cells (BMMC); experiment: BMMC high cell density IgE activation: hexosaminidase; format: cell-based, mouse; conditions: high cell density; read-out: BMMC anti-IgE Hexos.
Experimental: (§1) After sensitizing, cells are counted, pelleted (1000 rpm, 5-10 minutes), and resuspended at 1-3×10^6 cells/ml in MT buffer. Add 100 ul of cell suspension to each well and 100 ul of compound dilutions. The final vehicle concentration is 0.5% DMSO. Incubate at 37° C. (5% CO2) for 1 hour. After 1 hour of compound treatment, stimulate cells with 6× stimulus (60 ng/ml DNP-BSA). Mix wells with the cells and allow plates to incubate at 37° C. (5% CO2) for one hour. After 1 hour incubation, pellet cells (10 minutes, 1000 RPM) and collect 200 ul per well of the supernatant, being careful not to disturb pellet, and transfer to a clean tube or 96-well plate. Place the supernatant plate on ice. During the 4-5 hour step (see next) perform the hexosiminidase assay. Resuspend cell pellet in 240 ul WEI-conditioned media containing 0.5% DMSO and corresponding concentration of compound. Incubate BMMC cells for 4-5 hours at 37° C. (5% CO2). After incubation, pellet cells (1000 RPM, 10 minutes) and collect 225 ul per well and place in −80° C. until ready to perform ELISAS. ELISAS are performed on appropriately diluted samples (determined empirically for each donor cell population so that the sample measurement falls within the standard curve) following the supplier's instructions.
(§2) Add 50 uL of BMMC cell supernatant (see above) to the hexoseaminidase substrate, place at 37° C. for 30 minutes and read the plate at 5, 10, 15, and 30 minutes on a spectrophotometer.

| SMILES | pIC50 |
| --- | --- |
| Cn1ncc2ccc(Nc3ncc(F)c(Nc4ccc(Cl)c(Cl)c4)n3)cc21 [Compound R935393] | 5.61 |
| COc1c(C)cc(Nc2ncc(F)c(Nc3ccc4c(c3)NC(=O)C(C)(C)O4)n2)cc1Cl [Compound R940361] | 7.22 |

test system: cultured human mast cells (CHMC); experiment: CHMC high cell density IgE activation: histamine; format: cell-based; conditions: not given
Experimental: (§3) After sensitizing, cells are counted, pelleted (1000 rpm, 5-10 minutes), and resuspended at 1-2 ×10^6 cells/ml in MT buffer. Add 100 ul of cell suspension to each well and 100 ul of compound dilutions. The final vehicle concentration is 0.5% DMSO. Incubate at 37° C. (5% CO2) for 1 hour. After 1 hour of compound treatment, stimulate cells with 6× anti-IgE. Mix wells with the cells and allow plates to incubate at 37° C. (5% CO2) for one hour. After 1 hour incubation, pellet cells (10 minutes, 1000 RPM) and collect 200 ul per well of the supernatant, being careful not to disturb pellet. Place the supernatant plate on ice. During the 7-hour step (see next) perform tryptase assay on supernatant that had been diluted 1:500. Resuspend cell pellet in 240 ul of CM media containing 0.5% DMSO and corresponding concentration of compound. Incubate CHMC cells for 7 hours at 37° C. (5% CO2). After incubation, pellet cells (1000 RPM, 10 minutes) and collect 225 ul per well and place in −80° C. until ready to perform ELISAS. ELISAS are performed on appropriately diluted samples (determined empirically for each donor cell population so that the sample measurement falls within the standard curve) following the supplier's instructions.

| SMILES | pIC50 |
| --- | --- |
| CNC(=O)c1cc2cc(Nc3ncc(F)c(Nc4ccc(C(C)(C)C)cc4)n3)ccc2o1 [Compound R926494] | < 5.00 |
| CNC(=O)c1cc2cc(Nc3ncc(F)c(Nc4ccc5c(c4)OCCO5)n3)ccc2o1 [Compound R926496] | 6.09 |
| COC(=O)c1cc2cc(Nc3ncc(F)c(Nc4ccc(OC(C)C)cc4)n3)ccc2o1 [Compound R926704] | < 5.00 |
| CC(C)Oc1ccc(Nc2nc(Nc3ccc4oc(CO)cc4c3)ncc2F)cc1 [Compound R926705] | 6.19 |

test system: bone marrow derived mast cells (BMMC); experiment: BMMC high cell density IgE activation: IL-6; format: cell-based, mouse; conditions: high cell density; read-out: BMMC anti-IgE IL-6
Experimental: as §1

| SMILES | pIC50 |
| --- | --- |
| Cn1ncc2ccc(Nc3ncc(F)c(Nc4ccc(Cl)c(Cl)c4)n3)cc21 [Compound R935393] | 6.28 |
| COc1c(C)cc(Nc2ncc(F)c(Nc3ccc4c(c3)NC(=O)C(C)(C)O4)n2)cc1Cl [Compound R940361] | 7.00 |

test system: cultured human mast cells (CHMC); experiment: CHMC low cell density IgE activation: LTC4 assay; format: cell-based; conditions: anti-IgE activation, LTC4 release
Experimental: Pellet CHMC cells (980 rpm, 10 min) and resuspend in pre-warmed MT. Add 65 ul of cells to each 96-well plate. Depending on the degranulation activity for each particular CHMC donor, load 1000-1500 cells/well. Mix four times followed by a 1 hr incubation at 37° C. […] Stimulate cells by adding 25 ul of 6× anti-IgE solution to the appropriate plates. Add 25 ul MT to un-stimulated control wells. Mix twice following addition of the anti-IgE. Incubate at 37° C. for 30 minutes. […] Spin plates at 1000 rpm for 10 min to pellet cells. Transfer 25 ul of supernatant to a 96-well black bottom plate and add 100 ul of freshly diluted tryptase substrate solution to each well. Incubate plates at room temperature for 30 min.
Leukotriene C4 (LTC4) is also quantified using an ELISA kit on appropriately diluted supernatant samples (determined empirically for each donor cell population so that the sample measurement falls within the standard curve) following the supplier's instructions.

| SMILES | pIC50 |
| --- | --- |
| CNC(=O)c1cc2cc(Nc3ncc(F)c(Nc4ccc(C(C)(C)C)cc4)n3)ccc2o1 [Compound R926494] | 7.11 |
| CC(C)Oc1ccc(Nc2nc(Nc3ccc4oc(CO)cc4c3)ncc2F)cc1 [Compound R926705] | 6.27 |

test system: bone marrow derived mast cells (BMMC); experiment: BMMC high cell density IgE activation: TNFalpha; format: cell-based, mouse; conditions: high cell density; read-out: BMMC anti-IgE TNF-alpha
Experimental: as §1

| SMILES | pIC50 |
| --- | --- |
| Cn1ncc2ccc(Nc3ncc(F)c(Nc4ccc(Cl)c(Cl)c4)n3)cc21 [Compound R935393] | 5.83 |
| COc1c(C)cc(Nc2ncc(F)c(Nc3ccc4c(c3)NC(=O)C(C)(C)O4)n2)cc1Cl [Compound R940361] | 7.15 |

test system: cultured human mast cells (CHMC); experiment: CHMC low cell density ionomycin activation: tryptase assay; format: cell-based; conditions: Low Density CHMC, ionomycin activation, tryptase release; read-out: CHMC Ionomycin Tryptase IC50

| SMILES | pIC50 |
| --- | --- |
| CNC(=O)c1cc2cc(Nc3ncc(F)c(Nc4ccc(C(C)(C)C)cc4)n3)ccc2o1 [Compound R926494] | < 5.00 |
| CNC(=O)c1cc2cc(Nc3ncc(F)c(Nc4ccc5c(c4)OCCO5)n3)ccc2o1 [Compound R926496] | < 5.00 |
| COC(=O)c1cc2cc(Nc3ncc(F)c(Nc4ccc(OC(C)C)cc4)n3)ccc2o1 [Compound R926704] | < 5.00 |
| CC(C)Oc1ccc(Nc2nc(Nc3ccc4oc(CO)cc4c3)ncc2F)cc1 [Compound R926705] | < 5.00 |

same assay, conditions: low cell density; read-out: CHMC Ionomycin Tryptase

| SMILES | pIC50 |
| --- | --- |
| Cn1ncc2ccc(Nc3ncc(F)c(Nc4ccc(Cl)c(Cl)c4)n3)cc21 [Compound R935393] | < 5.00 |
| COc1c(C)cc(Nc2ncc(F)c(Nc3ccc4c(c3)NC(=O)C(C)(C)O4)n2)cc1Cl [Compound R940361] | 5.66 |

test system: Human Jurkat T-cells (clone N); experiment: Jurkat T-cell activation (anti-TCR, CD69 upregulation); format: cell-based; conditions: not given
Method in brief: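 Readout is CD69 upregulation by flow cytometry (anti-CD69-APC, 20 min at 4 °C) after 20 h anti-TCR (C305, 500 ng/ml) stimulation at 37 °C.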

| SMILES | pIC50 |
| --- | --- |
| CNC(=O)c1cc2cc(Nc3ncc(F)c(Nc4ccc(C(C)(C)C)cc4)n3)ccc2o1 [Compound R926494] | 4.90 |
| CNC(=O)c1cc2cc(Nc3ncc(F)c(Nc4ccc5c(c4)OCCO5)n3)ccc2o1 [Compound R926496] | 5.36 |
| COC(=O)c1cc2cc(Nc3ncc(F)c(Nc4ccc(OC(C)C)cc4)n3)ccc2o1 [Compound R926704] | 5.03 |
| CC(C)Oc1ccc(Nc2nc(Nc3ccc4oc(CO)cc4c3)ncc2F)cc1 [Compound R926705] | 5.58 |
| Cn1ncc2ccc(Nc3ncc(F)c(Nc4ccc(Cl)c(Cl)c4)n3)cc21 [Compound R935393] | < 5.00 |
| COc1c(C)cc(Nc2ncc(F)c(Nc3ccc4c(c3)NC(=O)C(C)(C)O4)n2)cc1Cl [Compound R940361] | 6.41 |

test system: cultured human mast cells (CHMC); experiment: CHMC high cell density IgE activation: LTC4; format: cell-based; conditions: not given
Experimental: as §3

| SMILES | pIC50 |
| --- | --- |
| CNC(=O)c1cc2cc(Nc3ncc(F)c(Nc4ccc(C(C)(C)C)cc4)n3)ccc2o1 [Compound R926494] | 6.49 |
| CNC(=O)c1cc2cc(Nc3ncc(F)c(Nc4ccc5c(c4)OCCO5)n3)ccc2o1 [Compound R926496] | 6.38 |
| COC(=O)c1cc2cc(Nc3ncc(F)c(Nc4ccc(OC(C)C)cc4)n3)ccc2o1 [Compound R926704] | < 5.00 |
| CC(C)Oc1ccc(Nc2nc(Nc3ccc4oc(CO)cc4c3)ncc2F)cc1 [Compound R926705] | 6.31 |

test system: cultured human mast cells (CHMC); experiment: CHMC high cell density IgE activation: hexos; format: cell-based; conditions: not given
Experimental: as §3, §2

| SMILES | pIC50 |
| --- | --- |
| CNC(=O)c1cc2cc(Nc3ncc(F)c(Nc4ccc(C(C)(C)C)cc4)n3)ccc2o1 [Compound R926494] | 6.19 |
| CNC(=O)c1cc2cc(Nc3ncc(F)c(Nc4ccc5c(c4)OCCO5)n3)ccc2o1 [Compound R926496] | 6.37 |
| COC(=O)c1cc2cc(Nc3ncc(F)c(Nc4ccc(OC(C)C)cc4)n3)ccc2o1 [Compound R926704] | < 5.70 |
| CC(C)Oc1ccc(Nc2nc(Nc3ccc4oc(CO)cc4c3)ncc2F)cc1 [Compound R926705] | 6.00 |

target: T1, Syk kinase (Homo sapiens, UniProt P43405); experiment: Syk kinase biochemical fluorescence polarization assay; conditions: isolated Syk kinase, fluorescence polarization, 4 uM ATP
T1 construct: purchased Upstate, Lake Placid NY

| SMILES | pIC50 |
| --- | --- |
| Cn1ncc2ccc(Nc3ncc(F)c(Nc4ccc(Cl)c(Cl)c4)n3)cc21 [Compound R935393] | 6.35 |
| COc1c(C)cc(Nc2ncc(F)c(Nc3ccc4c(c3)NC(=O)C(C)(C)O4)n2)cc1Cl [Compound R940361] | 7.16 |

test system: cultured human mast cells (CHMC); experiment: CHMC low cell density IgE activation: tryptase assay; format: cell-based; conditions: Low Density CHMC, anti-IgE activation, tryptase release; read-out: CHMC anti-IgE Tryptase IC50
Method in brief: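 Read-out: tryptase released into supernatant, measured by substrate turnover over 30 min at RT. Low-density CHMC (1000-1500 cells/well, per donor degranulation activity) in MT buffer, 1 hr at 37° C, then anti-IgE challenge 30 min at 37° C.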

| SMILES | pIC50 |
| --- | --- |
| CNC(=O)c1cc2cc(Nc3ncc(F)c(Nc4ccc(C(C)(C)C)cc4)n3)ccc2o1 [Compound R926494] | 6.50 |
| CNC(=O)c1cc2cc(Nc3ncc(F)c(Nc4ccc5c(c4)OCCO5)n3)ccc2o1 [Compound R926496] | 6.24 |
| COC(=O)c1cc2cc(Nc3ncc(F)c(Nc4ccc(OC(C)C)cc4)n3)ccc2o1 [Compound R926704] | 6.25 |
| CC(C)Oc1ccc(Nc2nc(Nc3ccc4oc(CO)cc4c3)ncc2F)cc1 [Compound R926705] | 6.58 |

same assay, conditions: low cell density; read-out: CHMC anti-IgE Tryptase

| SMILES | pIC50 |
| --- | --- |
| COc1c(C)cc(Nc2ncc(F)c(Nc3ccc4c(c3)NC(=O)C(C)(C)O4)n2)cc1Cl [Compound R940361] | 7.33 |

test system: cultured human mast cells (CHMC); experiment: CHMC high cell density IgE activation: TNFalpha; format: cell-based; conditions: read-out: CHMC high density TNF-alpha
Experimental: as §3

| SMILES | pIC50 |
| --- | --- |
| CNC(=O)c1cc2cc(Nc3ncc(F)c(Nc4ccc(C(C)(C)C)cc4)n3)ccc2o1 [Compound R926494] | < 5.00 |
| CNC(=O)c1cc2cc(Nc3ncc(F)c(Nc4ccc5c(c4)OCCO5)n3)ccc2o1 [Compound R926496] | 6.21 |
| COC(=O)c1cc2cc(Nc3ncc(F)c(Nc4ccc(OC(C)C)cc4)n3)ccc2o1 [Compound R926704] | < 5.00 |
| CC(C)Oc1ccc(Nc2nc(Nc3ccc4oc(CO)cc4c3)ncc2F)cc1 [Compound R926705] | < 5.00 |

test system: cultured human mast cells (CHMC); experiment: CHMC high cell density IgE activation: tryptase; format: cell-based; conditions: not given
Experimental: as §3

| SMILES | pIC50 |
| --- | --- |
| CNC(=O)c1cc2cc(Nc3ncc(F)c(Nc4ccc(C(C)(C)C)cc4)n3)ccc2o1 [Compound R926494] | < 5.70 |
| CNC(=O)c1cc2cc(Nc3ncc(F)c(Nc4ccc5c(c4)OCCO5)n3)ccc2o1 [Compound R926496] | 6.27 |
| COC(=O)c1cc2cc(Nc3ncc(F)c(Nc4ccc(OC(C)C)cc4)n3)ccc2o1 [Compound R926704] | < 5.00 |
| CC(C)Oc1ccc(Nc2nc(Nc3ccc4oc(CO)cc4c3)ncc2F)cc1 [Compound R926705] | 5.90 |
